The results in this text go back to patent US12065441B2, “Pyrazolopyrimidine derivative, use thereof and pharmaceutical composition” (GENGLE THERAPEUTICS, INC., priority 2018, dated 2024).

Like-named read-outs stand apart in the source and are kept apart here.

For one data set, the target named is JAK2 (Homo sapiens, UniProt O60674). In words: Caliper Mobility Shift Assay, kinase enzyme activity, JAK2. It counts as biochemical. The following applies: for inhibitory effect on kinase JAK2 (in words): JAK2, summary of Table 1; for IC50: JAK2, read-out: Kinase inhibitory activity (IC50, nM) JAK2. Here is the method:
(§1) The half-inhibition concentration IC50 of the compound (the concentration of the compound required to inhibit the enzyme activity to 50%) is measured by mixing the fixed enzyme with a specific substrate and different concentrations of the test compound. The measurement method used was Caliper Mobility Shift Assay, the kinases measured were JAK1, JAK2, JAK3 and TYK2, and the standard reference compound used was staurosporine.

A further data set has as its target TYK2 (Homo sapiens, UniProt P29597). The experiment in a line: Caliper Mobility Shift Assay, kinase enzyme activity, TYK2. The following applies: for inhibitory activity on TYK2 (in words): TYK2, summary of Table 1; for IC50: TYK2, read-out: Kinase inhibitory activity (IC50, nM) TYK2. It counts as biochemical. Here is the method: as §1
A short description of data set [1]: Pharmacokinetics experiment in mice (intravenous and oral). The following applies: for F: 10 mg/kg oral vs 2 mg/kg intravenous; for AUC(0-t) / MRT inf / clearance / half-life / Vd / Cmax / Tmax: both sexes, mouse, blood, single dose; for half-life: read-out: Terminal t1/2 (converted); for Vd: read-out: Vss. The format is in vivo. Here is the method:
Experimental animals: mice, male and female, weight: 23-25 g;
Preparation of the test articles: The target compounds (Ig, Ii, and Ip) were prepared as 0.4 mg/mL (for intravenous administration) and 1.0 mg/mL (for oral administration), for later use. Administration route: oral administration/intravenous injection. Dosing volume and frequency: 5 mL/kg (intravenous injection) or 10 mL/kg (oral administration), single dose.
Sample collection: Blood was collected at the following time points, 5 min, 15 min, 30 min, 1 hr, 2 hr, 4 hr, 8 hr and 24 hr after administration.
Sample analysis: LC-MS/MS method was used to detect the collected samples. The instrument model used was Triple Quad 6500+.
Pharmacokinetic data analysis: WinNolin was used to fit and calculate the obtained blood drug concentration data according to the non-compartmental model method, and partial results are summarized in Table 2.

In the next data set the target is T1, JAK3 (Homo sapiens, UniProt P52333).
T1 sequence (P52333 1-1124): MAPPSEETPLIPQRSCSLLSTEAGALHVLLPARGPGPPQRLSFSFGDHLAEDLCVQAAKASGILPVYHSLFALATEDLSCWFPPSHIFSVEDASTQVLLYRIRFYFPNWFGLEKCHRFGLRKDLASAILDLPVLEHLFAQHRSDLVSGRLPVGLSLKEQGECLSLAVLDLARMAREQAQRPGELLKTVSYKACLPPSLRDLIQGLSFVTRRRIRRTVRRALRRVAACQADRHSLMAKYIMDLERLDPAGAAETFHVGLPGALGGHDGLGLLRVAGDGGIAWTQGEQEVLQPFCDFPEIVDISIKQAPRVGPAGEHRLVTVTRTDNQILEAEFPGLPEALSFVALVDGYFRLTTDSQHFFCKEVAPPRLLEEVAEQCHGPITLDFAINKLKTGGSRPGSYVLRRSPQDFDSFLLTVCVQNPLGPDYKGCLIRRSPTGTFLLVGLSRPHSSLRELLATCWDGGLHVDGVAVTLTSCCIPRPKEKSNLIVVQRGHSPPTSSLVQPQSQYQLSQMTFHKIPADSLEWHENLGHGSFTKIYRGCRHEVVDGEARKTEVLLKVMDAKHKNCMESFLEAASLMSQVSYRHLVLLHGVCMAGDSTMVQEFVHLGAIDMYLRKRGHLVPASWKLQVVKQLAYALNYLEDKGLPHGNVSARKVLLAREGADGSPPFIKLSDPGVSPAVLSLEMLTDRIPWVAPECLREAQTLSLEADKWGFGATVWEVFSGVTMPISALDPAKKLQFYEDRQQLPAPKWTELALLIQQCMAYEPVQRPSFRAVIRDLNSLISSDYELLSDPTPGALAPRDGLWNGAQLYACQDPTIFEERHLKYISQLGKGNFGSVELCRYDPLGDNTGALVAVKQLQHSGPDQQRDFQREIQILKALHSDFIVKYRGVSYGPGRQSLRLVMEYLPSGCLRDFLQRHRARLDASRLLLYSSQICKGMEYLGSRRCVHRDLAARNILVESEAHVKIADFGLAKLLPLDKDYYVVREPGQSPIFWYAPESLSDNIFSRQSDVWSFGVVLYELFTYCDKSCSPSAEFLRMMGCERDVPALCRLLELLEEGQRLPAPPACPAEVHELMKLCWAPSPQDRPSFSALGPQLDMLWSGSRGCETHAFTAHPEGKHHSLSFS
The experiment in a line: Caliper Mobility Shift Assay, kinase enzyme activity, JAK3. It counts as biochemical. The following applies: for inhibitory activity on JAK3 (in words): JAK3, summary of Table 1; for IC50: JAK3, read-out: Kinase inhibitory activity (IC50, nM) JAK3. As for the experimental part:
as §1

In another data set the target is JAK1 (Homo sapiens, UniProt P23458). The experiment in a line: Caliper Mobility Shift Assay, kinase enzyme activity, JAK1. The format is biochemical. The conditions noted are these: for inhibitory effect on kinase JAK1 (in words): JAK1, summary of Table 1; for IC50: JAK1, read-out: Kinase inhibitory activity (IC50, nM) JAK1. Here is the method: as §1
JAK1, sequence (P23458 whole entry): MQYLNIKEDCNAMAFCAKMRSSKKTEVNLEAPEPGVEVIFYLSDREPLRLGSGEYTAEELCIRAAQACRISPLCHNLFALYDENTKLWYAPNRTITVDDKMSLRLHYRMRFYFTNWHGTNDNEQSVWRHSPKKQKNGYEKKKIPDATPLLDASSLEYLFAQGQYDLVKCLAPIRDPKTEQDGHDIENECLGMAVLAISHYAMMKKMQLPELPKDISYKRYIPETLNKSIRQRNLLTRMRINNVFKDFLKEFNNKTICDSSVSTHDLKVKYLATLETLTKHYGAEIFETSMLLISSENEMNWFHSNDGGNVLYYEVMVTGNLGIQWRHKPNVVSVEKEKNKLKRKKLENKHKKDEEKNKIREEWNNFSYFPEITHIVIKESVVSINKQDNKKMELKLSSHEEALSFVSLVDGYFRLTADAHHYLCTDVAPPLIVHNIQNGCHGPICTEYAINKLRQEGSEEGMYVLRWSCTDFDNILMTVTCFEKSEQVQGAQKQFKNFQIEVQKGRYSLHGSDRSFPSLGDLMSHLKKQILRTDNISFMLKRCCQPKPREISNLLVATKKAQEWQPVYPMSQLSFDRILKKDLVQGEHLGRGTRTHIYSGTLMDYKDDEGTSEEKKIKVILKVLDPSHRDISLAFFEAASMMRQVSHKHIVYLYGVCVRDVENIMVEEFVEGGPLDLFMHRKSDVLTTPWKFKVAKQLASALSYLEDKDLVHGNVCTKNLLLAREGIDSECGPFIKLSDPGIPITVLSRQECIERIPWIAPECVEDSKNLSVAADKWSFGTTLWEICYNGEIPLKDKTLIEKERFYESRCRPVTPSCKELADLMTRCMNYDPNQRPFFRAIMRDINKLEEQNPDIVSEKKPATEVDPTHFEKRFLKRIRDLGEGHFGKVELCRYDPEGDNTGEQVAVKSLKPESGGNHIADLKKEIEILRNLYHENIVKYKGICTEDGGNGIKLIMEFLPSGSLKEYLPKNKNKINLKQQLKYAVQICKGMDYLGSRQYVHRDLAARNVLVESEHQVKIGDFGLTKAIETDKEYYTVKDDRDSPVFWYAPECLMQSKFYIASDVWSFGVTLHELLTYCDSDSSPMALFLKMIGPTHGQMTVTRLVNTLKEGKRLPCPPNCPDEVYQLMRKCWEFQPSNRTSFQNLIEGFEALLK

JAK2, sequence (O60674 whole entry): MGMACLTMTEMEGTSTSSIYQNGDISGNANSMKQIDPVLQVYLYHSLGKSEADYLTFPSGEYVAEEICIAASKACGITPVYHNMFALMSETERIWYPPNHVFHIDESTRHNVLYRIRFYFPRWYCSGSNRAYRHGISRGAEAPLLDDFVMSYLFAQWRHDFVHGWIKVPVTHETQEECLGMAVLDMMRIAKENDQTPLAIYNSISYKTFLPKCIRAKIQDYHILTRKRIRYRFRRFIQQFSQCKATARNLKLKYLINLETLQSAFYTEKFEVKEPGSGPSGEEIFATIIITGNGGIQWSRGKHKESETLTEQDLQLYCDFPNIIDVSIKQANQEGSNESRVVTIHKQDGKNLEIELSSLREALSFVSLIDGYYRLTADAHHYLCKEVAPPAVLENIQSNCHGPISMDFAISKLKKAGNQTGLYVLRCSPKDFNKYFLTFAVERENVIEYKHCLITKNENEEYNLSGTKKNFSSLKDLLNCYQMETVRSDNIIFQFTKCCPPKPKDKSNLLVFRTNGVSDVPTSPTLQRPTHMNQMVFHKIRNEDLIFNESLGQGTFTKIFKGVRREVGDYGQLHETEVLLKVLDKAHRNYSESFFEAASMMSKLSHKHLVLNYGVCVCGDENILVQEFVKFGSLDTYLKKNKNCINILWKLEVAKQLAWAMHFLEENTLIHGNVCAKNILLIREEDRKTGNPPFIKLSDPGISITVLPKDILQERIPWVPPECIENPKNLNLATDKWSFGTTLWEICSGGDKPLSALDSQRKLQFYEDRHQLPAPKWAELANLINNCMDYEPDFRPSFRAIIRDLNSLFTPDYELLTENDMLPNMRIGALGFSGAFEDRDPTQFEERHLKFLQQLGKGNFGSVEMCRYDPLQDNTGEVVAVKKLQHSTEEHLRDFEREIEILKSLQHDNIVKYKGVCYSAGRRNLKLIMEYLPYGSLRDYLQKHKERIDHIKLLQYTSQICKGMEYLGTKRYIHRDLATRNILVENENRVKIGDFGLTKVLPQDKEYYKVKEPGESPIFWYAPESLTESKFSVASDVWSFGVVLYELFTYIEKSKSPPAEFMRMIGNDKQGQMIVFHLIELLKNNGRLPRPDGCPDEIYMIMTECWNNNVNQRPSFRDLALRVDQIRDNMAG
TYK2, sequence (P29597 whole entry): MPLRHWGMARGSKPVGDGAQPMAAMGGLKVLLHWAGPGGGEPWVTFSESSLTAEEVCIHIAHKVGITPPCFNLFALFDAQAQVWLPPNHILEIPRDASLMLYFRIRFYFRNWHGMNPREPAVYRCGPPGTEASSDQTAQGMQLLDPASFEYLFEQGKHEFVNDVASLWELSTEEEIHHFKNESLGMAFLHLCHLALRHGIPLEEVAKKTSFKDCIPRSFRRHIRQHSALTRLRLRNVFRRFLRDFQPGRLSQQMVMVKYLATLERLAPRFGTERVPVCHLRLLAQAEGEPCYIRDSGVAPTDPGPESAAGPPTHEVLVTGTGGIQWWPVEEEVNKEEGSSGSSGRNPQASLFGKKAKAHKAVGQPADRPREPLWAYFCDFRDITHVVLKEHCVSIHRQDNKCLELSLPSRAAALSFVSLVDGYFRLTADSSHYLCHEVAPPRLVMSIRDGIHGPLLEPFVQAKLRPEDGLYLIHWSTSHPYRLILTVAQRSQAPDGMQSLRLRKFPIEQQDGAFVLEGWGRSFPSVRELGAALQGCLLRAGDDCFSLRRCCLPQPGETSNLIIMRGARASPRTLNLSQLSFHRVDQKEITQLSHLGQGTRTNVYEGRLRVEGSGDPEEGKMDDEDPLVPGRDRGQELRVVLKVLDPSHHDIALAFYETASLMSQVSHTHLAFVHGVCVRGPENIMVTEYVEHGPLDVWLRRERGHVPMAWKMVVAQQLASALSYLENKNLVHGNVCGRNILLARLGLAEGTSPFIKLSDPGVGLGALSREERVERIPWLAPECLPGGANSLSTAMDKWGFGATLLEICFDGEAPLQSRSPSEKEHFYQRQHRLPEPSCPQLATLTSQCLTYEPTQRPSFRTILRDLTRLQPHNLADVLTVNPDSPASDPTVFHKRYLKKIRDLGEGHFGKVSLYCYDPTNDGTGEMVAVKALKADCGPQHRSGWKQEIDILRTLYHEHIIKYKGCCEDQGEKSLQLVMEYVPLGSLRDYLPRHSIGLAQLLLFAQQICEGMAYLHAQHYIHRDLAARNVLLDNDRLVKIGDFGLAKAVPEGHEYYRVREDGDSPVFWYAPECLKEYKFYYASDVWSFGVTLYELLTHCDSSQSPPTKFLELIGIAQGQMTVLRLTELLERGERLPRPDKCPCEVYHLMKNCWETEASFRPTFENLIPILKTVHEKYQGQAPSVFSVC

As usually defined, the IC50 is the concentration that gives 50% inhibition. In general, AUC(0-t) refers to exposure summed from dosing to a finite time, without extrapolation to infinity. A lower AUC(0-t) goes with low exposure. For orientation: MRT inf means a mean duration of stay, worked out from the concentration-time curve. The Cmax is the maximum level reached in the sampled fluid or tissue. The term Tmax denotes the time from dosing to the highest level. `N#CCC1(n2cc(-c3ncnc4[nH]ncc34)cn2)CN(C2CCN(C(=O)c3ccnc(C(F)(F)F)c3F)CC2)C1` [Compound Ii]: at JAK2, the “inhibitory effect on kinase JAK2 (in words)” value was “strong inhibitory effect” and the IC50 came to 126 nM. For the same molecule, on TYK2, the “inhibitory activity on TYK2 (in words)” value is recorded as “weak inhibitory activity” and the IC50 amounted to 2660 nM. In data set [1], this molecule had an F of 37.9%. In data set [1] (2 mg/kg, intravenous injection), the AUC(0-t) turned out to be 900 ng·h/mL, the mean residence time MRT inf was found to be 35.8 min, the clearance was 37.3 mL/min/kg and the half-life is 50 min. Besides, the Vd in data set [1] (2 mg/kg, intravenous injection) amounted to 1.32 L/kg. Further, in data set [1] (10 mg/kg, oral administration), the AUC(0-t) was found to be 1710 ng·h/mL, the concentration peaked (Cmax) at 904 ng/mL, the Tmax was 60 min and the half-life was 59.2 min. For the same molecule, on JAK3, the “inhibitory activity on JAK3 (in words)” value is “weak inhibitory activity” and the IC50 was 3770 nM. Further, at JAK1, the “inhibitory effect on kinase JAK1 (in words)” value was “strong inhibitory effect” and the IC50 amounted to 39 nM.
Regarding `CCS(=O)(=O)N1CCC(N2CC(CC#N)(n3cc(-c4ncnc5[nH]ncc45)cn3)C2)CC1` [Compound Ig], at JAK2, the “inhibitory effect on kinase JAK2 (in words)” value is reported as “strong inhibitory effect” and the IC50 worked out at 47 nM. For the same molecule, on TYK2, the “inhibitory activity on TYK2 (in words)” value is on record as “weak inhibitory activity” and the IC50 amounted to 1230 nM. This molecule yielded a F in data set [1] of 51.7%. For the same molecule, in data set [1] (2 mg/kg, intravenous injection), the AUC(0-t) was 883 ng·h/mL, the MRT inf came to 26.8 min, the clearance was 37.5 mL/min/kg and the half-life is 23.4 min. In addition, the Vd in data set [1] (2 mg/kg, intravenous injection) turned out to be 0.997 L/kg. Also, in data set [1] (10 mg/kg, oral administration), the AUC(0-t) stood at 2290 ng·h/mL, the highest level (Cmax) was 1310 ng/mL, the Tmax turned out to be 22.5 min and the half-life was 70.8 min. On JAK3, the “inhibitory activity on JAK3 (in words)” value is on record as “weak inhibitory activity” and the IC50 was 2060 nM. Further, at JAK1, the “inhibitory effect on kinase JAK1 (in words)” value was “strong inhibitory effect” and the IC50 is 58 nM.
With `CCS(=O)(=O)N1CC(CC#N)(n2cc(-c3ncnc4[nH]ncc34)cn2)C1` [Compound Ip], at JAK2, the “inhibitory effect on kinase JAK2 (in words)” value is given as “strong inhibitory effect” and the concentration for half-maximal inhibition (IC50) was 12 nM. Besides, at TYK2, the “inhibitory activity on TYK2 (in words)” value is given as “weak inhibitory activity” and the IC50 was 209 nM. Also, the F in data set [1] turned out to be 99.4%. In addition, in data set [1] (2 mg/kg, intravenous injection), the AUC(0-t) amounted to 1200 ng·h/mL, the MRT inf stood at 63.6 min, the clearance is 27.3 mL/min/kg and the half-life was 83.4 min. The Vd in data set [1] (2 mg/kg, intravenous injection) was determined as 1.74 L/kg. In data set [1] (10 mg/kg, oral administration), the AUC(0-t) stood at 5950 ng·h/mL, the peak level (Cmax) was 3380 ng/mL, the Tmax was 15 min and the half-life is 84 min. For the same molecule, at JAK3, the “inhibitory activity on JAK3 (in words)” value is “weak inhibitory activity” and the IC50 is 423 nM.
